From US8378115B2, “Monomethine dyes” (Thermo Fisher Scientific (Milwaukee) LLC, priority 2007, dated 2013)

Columns and labels:
λDNA = experiment: Fluorescence enhancement of dye with λDNA; type: binding
Method: (§1) Stock solutions (8 mM) of each dye were prepared by dissolving each compound in dimethylsulfoxide (DMSO). Stock dye solutions were diluted to a desired concentration in tris-EDTA (TE) buffer (10 mM Tris, 1 mM EDTA, pH 8.0) immediately prior to use.
(§2) Stock solutions of λDNA and 40mer synthetic oligonucleotides (dsDNA and ssDNA), each at a concentration of 40 μM, were prepared in TE buffer. All DNA concentrations described are in base pairs of nucleotides. The DNA stock solutions were diluted to a desired concentration in TE buffer before being mixed with diluted dye solutions.
(§3) Fluorescence enhancement measurements of each dye were obtained by incubating dyes with λDNA, 40mer dsDNA, or 40mer ssDNA at a final concentration of 0.8 μM dye and 3.2 μM DNA for one minute. Fluorescence scans of the samples were performed with excitation wavelengths corresponding to the absorption maxima of the dyes. The resulting fluorescence intensities were compared to fluorescence intensities of Thiazole Orange (TO) and a compound equivalent to SYBR Green without the side chain (V02-06101), shown below,
(§4) [drawing 15] binding to λDNA, 40mer dsDNA, or 40mer ssDNA at a final concentration of 0.8 μM TO and 3.2 μM DNA for one minute, the same as for the tested dyes. The discrimination ratio between dsDNA and ssDNA was calculated by comparing the fluorescence intensities.

40mer dsDNA [1] = experiment: Fluorescence enhancement of dye with 40mer dsDNA; type: binding
Method: as §1, §2, §3, §4

[2] = Absorption spectra of dye alone; type: physicochemical; settings: for ε: in M-1·cm-1 (unit assumed)
Method: as §1
[…] […] Optical densities were determined at the absorbance maxima and the extinction coefficients were calculated using Beer's law.

40mer dsDNA [3] = experiment: Fluorescence enhancement of dye with 40mer dsDNA; type: binding; remark: listed apart in the source
[4] = 0.8 μM dye, 3.2 μM DNA, one minute

CCN(CC)c1ccc2c(/C=C3\Oc4ccccc4N3CC)cc(-c3ccccc3)[o+]c2c1 [Dye V02-06188]
Fluorescence relative to TO (λDNA; [4]): 0.6 | Fluorescence λ DNA/ssDNA (λDNA; [4]): 1.5 | Ratio λ DNA/ss (λDNA; fluorescence λ DNA vs ss-DNA): 2 | Relative Fluorescent Intensity (λDNA; λ DNA, TO = 1.0): 0.6 | Relative Fluorescent Intensity (40mer dsDNA [1]; 40-mer ds-DNA, TO = 1.0): 0.6 | Ratio ds/ss (40mer dsDNA [1]; fluorescence 40-mer ds-DNA vs ss-DNA): 1.5 | λex ([2]; Ethanol): 520 nm | ε ([2]; Ethanol): 58,000 | λex ([2]; TE Buffer, 8 μM dye): 499 nm | ε ([2]; TE Buffer, 8 μM dye): 20,444 | binding preference dsDNA over ssRNA (40mer dsDNA [3]): slight preference for binding to dsDNA over binding to ssRNA
